According to ChEMBL document CHEMBL1201861, “Genomics of Drug Sensitity in Cancer screening data, Wellcome Trust Sanger Institute”:
pIC50: −log10 of the molar value.

Experiments:
G-402 = test: cells; type: functional, cell-based; conditions: Homo sapiens
Description: SANGER: Inhibition of human G-402 cell growth in a cell viability assay.

NCI-H1993 = test: cells; type: functional, cell-based; conditions: Homo sapiens;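 note: growth inhibition of the cancer cell line, assessed with a cell viability assay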
Description: SANGER: Inhibition of human NCI-H1993 cell growth in a cell viability assay.

KYSE-140 = test: cells; type: functional, cell-based; conditions: Homo sapiens;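 note: cell viability assay measuring growth inhibition in human KYSE-140 cells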
Description: SANGER: Inhibition of human KYSE-140 cell growth in a cell viability assay.

LU-165 = test: cells; type: functional, cell-based; conditions: Homo sapiens
Description: SANGER: Inhibition of human LU-165 cell growth in a cell viability assay.

YAPC = test: cells; type: functional, cell-based; conditions: Homo sapiens;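 note: growth inhibition of YAPC cells, measured with a cell viability assay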
Description: SANGER: Inhibition of human YAPC cell growth in a cell viability assay.

NCI-H719 = test: cells; type: functional, cell-based; conditions: Homo sapiens;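 note: growth inhibition of the cultured cell line, read out with a viability assay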
Description: SANGER: Inhibition of human NCI-H719 cell growth in a cell viability assay.

LU-99A = test: cells; type: functional, cell-based; conditions: Homo sapiens;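 note: growth inhibition of LU-99A cells, read out with a cell viability assay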
Description: SANGER: Inhibition of human LU-99A cell growth in a cell viability assay.

CESS = test: SANGER: Inhibition of human CESS cell growth in a cell viability assay.; type: functional, cell-based
BFTC-909 = test: cells; type: functional, cell-based; conditions: Homo sapiens
Description: SANGER: Inhibition of human BFTC-909 cell growth in a cell viability assay.

NCI-H187 = test: cells; type: functional, cell-based; conditions: Homo sapiens;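 note: growth inhibition of NCI-H187 cells, read out as cell viability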
Description: SANGER: Inhibition of human NCI-H187 cell growth in a cell viability assay.

KYSE-410 = test: cells; type: functional, cell-based; conditions: Homo sapiens;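 note: growth inhibition of KYSE-410 cells, measured through a cell viability readout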
Description: SANGER: Inhibition of human KYSE-410 cell growth in a cell viability assay.

RERF-LC-MS = test: cells; type: functional, cell-based; conditions: Homo sapiens;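 note: growth inhibition of human RERF-LC-MS cells, read out by a cell viability assay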
Description: SANGER: Inhibition of human RERF-LC-MS cell growth in a cell viability assay.

P31-FUJ = test: cells; type: functional, cell-based; conditions: Homo sapiens;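 note: growth inhibition of P31-FUJ cells, read out with a viability assay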
Description: SANGER: Inhibition of human P31-FUJ cell growth in a cell viability assay.

HuP-T4 = test: cells; type: functional, cell-based; conditions: Homo sapiens;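 note: cell viability assay measuring how much HuP-T4 cell growth is inhibited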
Description: SANGER: Inhibition of human HuP-T4 cell growth in a cell viability assay.

OVCAR-3 = test: cells; type: functional, cell-based; conditions: Homo sapiens;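 note: growth inhibition of human OVCAR-3 cells, determined by a cell viability assay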
Description: SANGER: Inhibition of human OVCAR-3 cell growth in a cell viability assay.

NCI-H810 = test: cells; type: functional, cell-based; conditions: Homo sapiens;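 note: IC50 reflects inhibition of cancer cell line growth, read out with a cell viability assay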
Description: SANGER: Inhibition of human NCI-H810 cell growth in a cell viability assay.

COLO-680N = test: cells; type: functional, cell-based; conditions: Homo sapiens;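 note: cell viability assay used to measure inhibition of COLO-680N cell growth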
Description: SANGER: Inhibition of human COLO-680N cell growth in a cell viability assay.

MDA-MB-134-VI = test: cells; type: functional, cell-based; conditions: Homo sapiens
Description: SANGER: Inhibition of human MDA-MB-134-VI cell growth in a cell viability assay.

EGI-1 = test: cells; type: functional, cell-based; conditions: Homo sapiens;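 note: cell viability readout used to gauge growth inhibition of EGI-1 cells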
Description: SANGER: Inhibition of human EGI-1 cell growth in a cell viability assay.

BL-41 = test: cells; type: functional, cell-based; conditions: Homo sapiens;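 note: growth inhibition of human BL-41 cells, read out with a cell viability assay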
Description: SANGER: Inhibition of human BL-41 cell growth in a cell viability assay.

NB12 = test: cells; type: functional, cell-based; conditions: Homo sapiens;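 note: growth inhibition of human NB12 cells, read out by a cell viability assay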
Description: SANGER: Inhibition of human NB12 cell growth in a cell viability assay.

SNU-16 = test: cells; type: functional, cell-based; conditions: Homo sapiens;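 note: growth inhibition of human SNU-16 cells, determined with a cell viability readout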
Description: SANGER: Inhibition of human NCI-SNU-16 cell growth in a cell viability assay.

SR = test: cells; type: functional, cell-based; conditions: Homo sapiens
Description: SANGER: Inhibition of human SR cell growth in a cell viability assay.

Ca9-22 = test: cells; type: functional, cell-based; conditions: Homo sapiens;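 note: growth inhibition of Ca9-22 cells, read out with a cell viability assay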
Description: SANGER: Inhibition of human Ca9-22 cell growth in a cell viability assay.

NCI-H2171 = test: cells; type: functional, cell-based; conditions: Homo sapiens;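 note: growth inhibition of human NCI-H2171 cells, read out by a cell viability assay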
Description: SANGER: Inhibition of human NCI-H2171 cell growth in a cell viability assay.

H4 = test: cells; type: functional, cell-based; conditions: Homo sapiens
Description: SANGER: Inhibition of human H4 cell growth in a cell viability assay.

LCLC-97TM1 = test: cells; type: functional, cell-based; conditions: Homo sapiens;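 note: cell viability assay measuring growth inhibition of human LCLC-97TM1 cells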
Description: SANGER: Inhibition of human LCLC-97TM1 cell growth in a cell viability assay.

K052 = test: cells; type: functional, cell-based; conditions: Homo sapiens;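 note: Read-out from a cell viability assay, IC50 reflecting suppression of K052 cell growth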
Description: SANGER: Inhibition of human K052 cell growth in a cell viability assay.

C32 = test: cells; type: functional, cell-based; conditions: Homo sapiens;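 note: cell viability assay, with IC50 reflecting inhibition of C32 cell growth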
Description: SANGER: Inhibition of human C32 cell growth in a cell viability assay.

JIYOYE = test: cells; type: functional, cell-based; conditions: Homo sapiens
Description: SANGER: Inhibition of human JiyoyeP-2003 cell growth in a cell viability assay.

CAKI-1 = test: cells; type: functional, cell-based; conditions: Homo sapiens;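 note: growth inhibition of CAKI-1 cells, measured by a cell viability assay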
Description: SANGER: Inhibition of human CAKI-1 cell growth in a cell viability assay.

NUGC-3 = test: cells; type: functional, cell-based; conditions: Homo sapiens;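 note: growth inhibition of human NUGC-3 cells, read out with a cell viability assay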
Description: SANGER: Inhibition of human NUGC-3 cell growth in a cell viability assay.

CPC-N = test: cells; type: functional, cell-based; conditions: Homo sapiens;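 note: growth inhibition of CPC-N cells, with a cell viability assay as the readout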
Description: SANGER: Inhibition of human CPC-N cell growth in a cell viability assay.

UMUC3 = test: cells; type: functional, cell-based; conditions: Homo sapiens;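 note: growth inhibition of human UM-UC-3 cells, read out with a cell viability assay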
Description: SANGER: Inhibition of human UM-UC-3 cell growth in a cell viability assay.

UACC-812 = test: cells; type: functional, cell-based; conditions: Homo sapiens
Description: SANGER: Inhibition of human UACC-812 cell growth in a cell viability assay.

SK-MM-2 = test: cells; type: functional, cell-based; conditions: Homo sapiens;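 note: growth inhibition of human SK-MM-2 cells, read out with a cell viability assay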
Description: SANGER: Inhibition of human SK-MM-2 cell growth in a cell viability assay.

HSC-3 = test: cells; type: functional, cell-based; conditions: Homo sapiens
Description: SANGER: Inhibition of human HSC-3 cell growth in a cell viability assay.

TYK-nu = test: cells; type: functional, cell-based; conditions: Homo sapiens;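 note: growth inhibition of human TYK-nu cells, read out by a cell viability assay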
Description: SANGER: Inhibition of human TYK-nu cell growth in a cell viability assay.

KP-N-YN = test: cells; type: functional, cell-based; conditions: Homo sapiens;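 note: growth inhibition of KP-N-YN cells, read out with a cell viability assay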
Description: SANGER: Inhibition of human KP-N-YN cell growth in a cell viability assay.

Capan-2 = test: cells; type: functional, cell-based; conditions: Homo sapiens;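 note: Capan-2 cell growth inhibition, read out with a viability assay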
Description: SANGER: Inhibition of human Capan-2 cell growth in a cell viability assay.

PF-382 = test: cells; type: functional, cell-based; conditions: Homo sapiens
Description: SANGER: Inhibition of human PF-382 cell growth in a cell viability assay.

RPMI-7951 = test: cells; type: functional, cell-based; conditions: Homo sapiens
Description: SANGER: Inhibition of human RPMI-7951 cell growth in a cell viability assay.

M14 = test: cells; type: functional, cell-based; conditions: Homo sapiens;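 note: growth inhibition of M14 cells, read out with a cell viability assay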
Description: SANGER: Inhibition of human M14 cell growth in a cell viability assay.

OE19 = test: cells; type: functional, cell-based; conditions: Homo sapiens;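 note: growth inhibition of OE19 cells, measured through a cell viability read-out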
Description: SANGER: Inhibition of human OE19 cell growth in a cell viability assay.

D-542MG = test: cells; type: functional, cell-based; conditions: Homo sapiens
Description: SANGER: Inhibition of human D-542MG cell growth in a cell viability assay.

DMS-153 = test: cells; type: functional, cell-based; conditions: Homo sapiens
Description: SANGER: Inhibition of human DMS-153 cell growth in a cell viability assay.

A2058 = test: cells; type: functional, cell-based; conditions: Homo sapiens;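 note: reduction of A2058 cell growth, read out with a viability assay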
Description: SANGER: Inhibition of human A2058 cell growth in a cell viability assay.

OAW-42 = test: cells; type: functional, cell-based; conditions: Homo sapiens;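 note: growth inhibition of OAW-42 cells, read out with a cell viability assay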
Description: SANGER: Inhibition of human OAW-42 cell growth in a cell viability assay.

U-251 = test: cells; type: functional, cell-based; conditions: Homo sapiens;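 note: growth inhibition of human U-251 cells, read out through a cell viability assay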
Description: SANGER: Inhibition of human U251 cell growth in a cell viability assay.

SK-HEP1 = test: cells; type: functional, cell-based, SK-HEP-1; conditions: Homo sapiens;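 note: cell viability readout used to quantify reduction in proliferation of human SK-HEP-1 cells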
Description: SANGER: Inhibition of human SK-HEP-1 cell growth in a cell viability assay.

AGS = test: cells; type: functional, cell-based; conditions: Homo sapiens;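 note: growth inhibition of AGS cells, determined with a cell viability assay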
Description: SANGER: Inhibition of human AGS cell growth in a cell viability assay.

YT = test: cells; type: functional, cell-based; conditions: Homo sapiens
Description: SANGER: Inhibition of human YT cell growth in a cell viability assay.

J82 = test: cells; type: functional, cell-based; conditions: Homo sapiens;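 note: growth inhibition of J82 cells, read out with a cell viability assay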
Description: SANGER: Inhibition of human J82 cell growth in a cell viability assay.

BT-20 = test: cells; type: functional, cell-based; conditions: Homo sapiens;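 note: cell viability assay measuring suppression of growth in human BT-20 cells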
Description: SANGER: Inhibition of human BT-20 cell growth in a cell viability assay.

MDA-MB-157 = test: cells; type: functional, cell-based; conditions: Homo sapiens
Description: SANGER: Inhibition of human MDA-MB-157 cell growth in a cell viability assay.

TE-441-T = test: cells; type: functional, cell-based; conditions: Homo sapiens
Description: SANGER: Inhibition of human TE-441-T cell growth in a cell viability assay.

MEL-JUSO = test: cells; type: functional, cell-based; conditions: Homo sapiens;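 note: growth inhibition of human MEL-JUSO cells, read out with a cell viability assay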
Description: SANGER: Inhibition of human MEL-JUSO cell growth in a cell viability assay.

NCI-H2081 = test: cells; type: functional, cell-based; conditions: Homo sapiens;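 note: growth inhibition of human NCI-H2081 cells, read out with a cell viability assay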
Description: SANGER: Inhibition of human NCI-H2081 cell growth in a cell viability assay.

MDA-MB-453 = test: cells; type: functional, cell-based; conditions: Homo sapiens
Description: SANGER: Inhibition of human MDA-MB-453 cell growth in a cell viability assay.

GMS-10 = test: cells; type: functional, cell-based; conditions: Homo sapiens;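 note: growth inhibition of GMS-10 cells, read out as cell viability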
Description: SANGER: Inhibition of human GMS-10 cell growth in a cell viability assay.

NCI-H64 = test: cells; type: functional, cell-based; conditions: Homo sapiens;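 note: growth inhibition of NCI-H64 cells, read out with a cell viability assay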
Description: SANGER: Inhibition of human NCI-H64 cell growth in a cell viability assay.

NB1 = test: cells; type: functional, cell-based; conditions: Homo sapiens
Description: SANGER: Inhibition of human NB1 cell growth in a cell viability assay.

LC4-1 = test: cells; type: functional, cell-based; conditions: Homo sapiens;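 note: growth inhibition of LC4-1 cells, read out with a cell viability assay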
Description: SANGER: Inhibition of human LC4-1 cell growth in a cell viability assay.

NCI-H1693 = test: cells; type: functional, cell-based; conditions: Homo sapiens;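 note: growth inhibition of the human cell line, read out with a cell viability assay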
Description: SANGER: Inhibition of human NCI-H1693 cell growth in a cell viability assay.

NCI-H2030 = test: cells; type: functional, cell-based; conditions: Homo sapiens;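 note: growth inhibition of human NCI-H2030 cells, read out by a cell viability assay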
Description: SANGER: Inhibition of human NCI-H2030 cell growth in a cell viability assay.

Measured: pIC50

N#C/C(=C1/Nc2ccccc2S1)c1ccnc(NCCc2cccnc2)n1
5.67: LCLC-97TM1
5.18: Capan-2
5.85: KYSE-140
5.36: J82
5.44: MEL-JUSO
5.11: OAW-42
5.15: MDA-MB-157
5.19: CAKI-1
5.53: OE19
< 5.10: G-402 | NCI-H1993 | LU-165 | YAPC | NCI-H719 | LU-99A | CESS | BFTC-909 | NCI-H187 | KYSE-410 | RERF-LC-MS | P31-FUJ | OVCAR-3 | COLO-680N | MDA-MB-134-VI | EGI-1 | NB12 | SNU-16 | Ca9-22 | NCI-H2171 | H4 | K052 | C32 | JIYOYE | NUGC-3 | CPC-N | UMUC3 | UACC-812 | SK-MM-2 | HSC-3 | KP-N-YN | PF-382 | RPMI-7951 | M14 | D-542MG | DMS-153 | A2058 | U-251 | AGS | YT | BT-20 | TE-441-T | NCI-H2081 | MDA-MB-453 | GMS-10 | NCI-H64 | NB1 | NCI-H1693 | NCI-H2030
5.27: NCI-H810
5.76: TYK-nu
5.35: HuP-T4
5.73: SR
5.12: BL-41 | LC4-1
5.31: SK-HEP1

CCn1c(-c2nonc2N)nc2cnc(Oc3cccc(NC(=O)c4ccc(OCCN5CCOCC5)cc4)c3)cc21 [GSK-269962A]
< 5.60: LU-165 | NCI-H719 | CESS | NCI-H187 | P31-FUJ | MDA-MB-134-VI | BL-41 | NB12 | SNU-16 | JIYOYE | CPC-N | UACC-812 | SK-MM-2 | KP-N-YN | PF-382 | D-542MG | DMS-153 | YT | TE-441-T | NCI-H2081 | NCI-H64 | NB1 | LC4-1
6.02: NCI-H2171
6.12: K052
> 8.01: SR
